Assay [1] concerns TNF-alpha secretion in human whole blood. The assay can be described thus: Inhibition of TNF-alpha secretion in human whole blood (IFN-gamma primed, L18-MDP stimulated). Conditions: L18-MDP 100 ng/mL, read-out: Human Whole Blood TNFα IC50. Type of assay: cell-based. As to the method: Materials: Assay medium consisted of RPMI 1640 medium (catalogue number: 11875119) and 10% heat inactivated FBS (Cytvia). U-PLEX Biomarker Assay (cat #K15067L-4) to detect levels of TNF-alpha was purchased from Meso Scale Discovery. Heparinized whole blood from healthy donors/volunteers was obtained through Research Blood Components, LLC.
Test compounds were prepared into a 10 mM DMSO solution and serially diluted into 9 points using a 3-fold dilution in a 96 well plate. A 10× working stock solution of recombinant human IFN-gamma (final concentration of 10 ng/mL) was prepared in assay medium and used to prepare a 10× solution of test compound. 20 μL of 10×IFN-gamma and test compound (or DMSO control) was added to a 96-well plate. 160 μL of heparinized whole blood obtained from healthy donors was dispensed into individual wells of the 96-well plate and placed on a plate shaker (150 rpm) and incubated for 60 min at 37° C. in a CO2 incubator. Subsequently, 20 μL of L18-MDP (final concentration of 100 ng/mL) was added to the appropriate wells and further incubated for 16 hours on a plate shaker (150 rpm) at 37° C. in a CO2 incubator. The final concentration of DMSO was 0.05% (v/v) in all wells. After incubation, 100 μL of DPBS was added per well, mixed by shaking at 500 rpm for 2 minutes, followed by centrifugation (400×g for 10 minutes) and collection of supernatants. TNF-alpha in supernatants was measured using MSD immunoassay (MesoScale Discovery). 4-parametric curve fit was used to determine the test compound concentration that results in 50% reduction of TNF-alpha concentration in supernatant relative to assay controls.

The next assay addresses T1, RIPK2 enzyme (Homo sapiens, UniProt O43353).
T1 construct: purchased Carna 09-128
Kind of assay: RIPK2 inhibition (ADP-Glo Kinase Assay). Conditions: RIPK2 5 nM, ATP 150 μM, MBP substrate, read-out: RIPK2 IC50. Type of assay: biochemical. A digest of the protocol: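 Human RIPK2 (5 nM) preincubated with compound 30 min at room temperature in 50 mM HEPES pH 7.5, 10 mM MgCl2, 2 mM DTT, 1 mM EGTA, 0.01% Brij-35, 0.05% BSA; native swine MBP as substrate. ADP formed quantified by ADP-Glo luminescence; percent inhibition relative to DMSO and no-enzyme controls.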

A further assay concerns human NOD2 signaling. The assay can be described thus: Inhibition of human NOD2 signaling in HEK-Blue-hNOD2 cells (L18-MDP stimulated, SEAP reporter). Format: cell-based. Conditions: NOD2 ligand stimulation, SEAP reporter, read-out: hNOD2 IC50. A digest of the protocol:
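HEK-Blue-hNOD2 cells (HEK293 with NOD2 and SEAP reporter), 12500/well, treated with 10-point 3-fold compound dilutions plus L18-MDP 0.5 ng/mL final, 24 h at 37 °C. Supernatant SEAP read with QUANTI-Blue after 3 h at 620 nm; IC50 by 4-parameter fit vs DMSO±L18-MDP controls.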

The target in assay [2] is T2, RIPK2 and XIAP protein-protein interaction (Homo sapiens, UniProt O43353).
T2 construct: the N-terminus of full-length RIPK2 was appended with the HaloTag fusion protein; expressed in transfected cells; host or cells: HEK293T
The assay can be described thus: Inhibition of the interaction of RIPK2 with XIAP (NanoBRET in HEK293T cells). Type of assay: cell-based. Particulars: RIPK2 HaloTag / XIAP NanoLuc, read-out: NanoBRET Scaffolding IC50. A digest of the protocol: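 HEK293T cells transiently co-transfected with HaloTag-RIPK2 (N-terminal) and XIAP-NanoLuc (C-terminal) full-length fusions, grown 24 h at 37° C. in Opti-MEM with 4% FBS. Compounds tested as 10-point 3-fold dilutions; NanoBRET ratio taken as 618 nm acceptor over 460 nm donor emission.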
(Bioluminescence resonance energy transfer reports proximity on the nanometre scale.)

Setting [3] is: Homo sapiens, HEK-Blue hNOD2, HEK-Blue-hNOD2 cells.

Where two headings read alike, the source gives them in different places.

T1 sequence (O43353 1-299 limits assumed): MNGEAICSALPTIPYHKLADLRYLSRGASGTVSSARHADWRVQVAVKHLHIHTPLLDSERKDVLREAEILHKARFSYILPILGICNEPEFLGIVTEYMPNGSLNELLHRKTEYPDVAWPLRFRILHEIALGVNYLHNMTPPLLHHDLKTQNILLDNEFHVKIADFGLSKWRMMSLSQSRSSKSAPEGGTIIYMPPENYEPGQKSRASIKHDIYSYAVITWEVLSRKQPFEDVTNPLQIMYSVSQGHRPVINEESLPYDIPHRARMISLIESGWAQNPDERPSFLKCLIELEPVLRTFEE
T2 sequence (O43353 whole entry, the tested form may be a part): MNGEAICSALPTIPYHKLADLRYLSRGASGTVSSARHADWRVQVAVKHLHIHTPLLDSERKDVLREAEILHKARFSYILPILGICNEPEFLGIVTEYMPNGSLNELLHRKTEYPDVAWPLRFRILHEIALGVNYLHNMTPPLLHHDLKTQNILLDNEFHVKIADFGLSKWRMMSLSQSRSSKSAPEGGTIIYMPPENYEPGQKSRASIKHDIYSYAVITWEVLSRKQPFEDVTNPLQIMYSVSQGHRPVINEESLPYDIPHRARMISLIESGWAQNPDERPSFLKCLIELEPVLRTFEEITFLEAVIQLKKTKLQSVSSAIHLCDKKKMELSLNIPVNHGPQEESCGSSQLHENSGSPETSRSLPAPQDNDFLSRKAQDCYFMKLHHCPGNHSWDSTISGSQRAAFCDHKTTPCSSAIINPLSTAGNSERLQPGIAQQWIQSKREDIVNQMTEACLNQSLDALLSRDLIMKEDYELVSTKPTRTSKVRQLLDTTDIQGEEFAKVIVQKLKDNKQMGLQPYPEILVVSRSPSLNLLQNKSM

Turning to `Cc1cc(CC(=O)Nc2cnn(C(C)(C)C)c2)ccc1Oc1ncnc2ccc(OC3CCN(C)CC3)cc12` [Compound 84, N-(1-(tert-butyl)-1H-pyrazol-4-yl)-2-(3-methyl-4-((6-((1-methyl-piperidin-4-yl)oxy)quinazolin-4-yl)oxy)phenyl) acetamide], the IC50 in assay [1] (16 hours) was 4 nM; on RIPK2 enzyme, 9.3 nM; in the assay with human NOD2 signaling (HEK-Blue-hNOD2 cells) it was 19.2 nM; in assay [2], 37 nM.
Take `CC(C)(C)n1cc(NC(=O)Cc2ccc(Oc3ccnc4ccc(S(C)(=O)=O)cc34)c(C(F)F)c2)cn1` [Compound 92, N-(1-(tert-butyl)-1H-pyrazol-4-yl)-2-(3-(difluoromethyl)-4-((6-(methylsulfonyl)quinolin-4-yl)oxy)phenyl)acetamide]: the IC50 in assay [1] (Homo sapiens, 16 h) is 40 nM; on RIPK2 enzyme it was below 2.5 nM; in the assay with human NOD2 signaling (setting [3]), 6.6 nM; in assay [2], 132 nM.
Take `Cc1c(Oc2ccnc3ccc(S(=O)(=O)C4CC4)cc23)ccc(CC(=O)Nc2cnn(C(C)(C)C)c2)c1F` [Compound 174, N-(1-(tert-butyl)-1H-pyrazol-4-yl)-2-(4-((6-(cyclopropylsulfonyl)quinolin-4-yl)oxy)-2-fluoro-3-methylphenyl)acetamide]: the IC50 is 2 nM in assay [1] (Homo sapiens, 16 h); below 2.5 nM on RIPK2 enzyme; 0.2 nM in the assay on human NOD2 signaling (setting [3]); 5 nM in assay [2].
On to `Cc1cc(CC(=O)Nc2cnn(C(C)(C)C)c2)ccc1Oc1ccnc2ccc(P(C)(C)=O)cc12` [Compound 179, N-(1-(tert-butyl)-1H-pyrazol-4-yl)-2-(4-((6-(dimethylphosphoryl)quinolin-4-yl)oxy)-3-methylphenyl) acetamide], for which the IC50 in assay [1] (Homo sapiens, 16 h) is 6 nM; on RIPK2 enzyme it was below 2.5 nM; with human NOD2 signaling (setting [3]) it was 38.1 nM; in assay [2] it was 465 nM.
In the same order, the values of `Cc1cc(CC(=O)Nc2noc(C(C)(C)C)n2)ccc1Oc1ccnc2ccc(S(C)(=O)=O)cc12` [Compound 182, N-(5-(tert-butyl)-1,2,4-oxadiazol-3-yl)-2-(3-methyl-4-((6-(methylsulfonyl)quinolin-4-yl)oxy)phenyl) acetamide] are 14 nM, below 2.5 nM, 2 nM and 18 nM.
In the same order, the values of `Cc1cc(CC(=O)Nc2cnn(C34CC(C3)C4)c2)ccc1Oc1ccnc2ccc(S(C)(=O)=O)cc12` [Compound 239, N-(1-(bicyclo[1.1.1]pentan-1-yl)-1H-pyrazol-4-yl)-2-(3-methyl-4-((6-(methylsulfonyl)quinolin-4-yl)oxy)phenyl)acetamide] are 37 nM, below 2.5 nM, 2.9 nM and 20 nM.
In the same order, the values of `Cc1cc(CC(=O)Nc2cnn(C(C)(C)C)c2)ccc1Oc1ncnc2ccc(CN3CCNCC3)cc12` [Compound 253, N-(1-(tert-butyl)-1H-pyrazol-4-yl)-2-(3-methyl-4-((6-(piperazin-1-ylmethyl)quinazolin-4-yl)oxy)phenyl)acetamide] are 7 nM, below 2.5 nM, 7.2 nM and 174 nM.
Take `Cc1cc(CC(=O)Nc2cnn(C(C)(C)C)c2)cc(F)c1Oc1ccnc2ccc(S(C)(=O)=O)cc12` [Compound 299, N-(1-(tert-butyl)-1H-pyrazol-4-yl)-2-(3-fluoro-5-methyl-4-((6-(methylsulfonyl)quinolin-4-yl)oxy)phenyl)acetamide]: the IC50 in assay [1] (Homo sapiens, 16 h) was 49 nM; on RIPK2 enzyme, below 2.5 nM; with human NOD2 signaling (setting [3]), 3.4 nM; in assay [2] it was 73 nM.
For `COc1cc2nccc(Oc3ccc(CC(=O)Nc4cnn(C(C)(C)C)c4)cc3C(F)F)c2cc1S(C)(=O)=O` [Compound 413, N-(1-(tert-butyl)-1H-pyrazol-4-yl)-2-(3-(difluoromethyl)-4-((7-methoxy-6-(methylsulfonyl)quinolin-4-yl)oxy)phenyl) acetamide], in that order: 13 nM, below 2.5 nM, 2.5 nM and 27 nM.

The values are drawn from patent US12624018B1, “Inhibitors of RIPK2 and medical uses thereof” (Odyssey Therapeutics, Inc., priority 2022, dated 2026).
